# Experimental data published in patent US20100021895A1, “Vectors for Inducing Homozygous Mutations and Methods of Using Same” (priority 2006, published 2010).
# Legend:
# [1] = tested on: mouse embryonic stem cell clones, each containing a neomycin resistance gene (Neo) inserted by the GTR1.3 gene trap retrovirus; assay: Carcinogen-induced LOH: frequency of colony formation in 2.0 mg/ml G418; type: cell-based; details: for fold increase of frequency of colony formation: 2 mg/ml G418 0.5 mM MNU
# Description: Carcinogen-induced LOH was measured in a panel of 53 mouse embryonic stem cell clones, each containing a neomycin resistance gene (Neo) inserted into a different cellular gene (FIG. 9) by the GTR1.3 gene trap retrovirus. Gene entrapment by GTR1.3 involves selection for inserted Neo sequences that can splice to the 3′ ends of cellular genes (Lin et al.,). The disrupted genes were identified by sequencing Neo-gene fusion transcripts and were localized on the mouse genome. Previous studies have shown that cells homozygous for GTR1.3-induced mutations can be selected from heterozygous cells simply by selecting for resistance to higher concentrations of G418, a method first shown to select for homozygous mutations induced by gene targeting (15). Mitotic recombination appears to be the preferred mechanism of spontaneous LOH involving Neo genes inserted in ES cells (17) and LOH involving other genes and cell types in vivo (12, 13). LOH doubles the number of Neo genes per cell and thus allows moderately resistant cells to acquire resistance to higher concentrations of G418. The frequencies of spontaneous LOH measured at the 53 different sites ranged from 1.3×10^−5 to 1.2×10^−4 (Table 3), similar to those reported for other inserted neomycin resistance genes (15, 17) in ES cells and for loci such as TK and APRT in other cell types (12, 13).
# A variety of chemical agents were tested for their ability to enhance the frequencies at which mutant cells survive in 2.0 mg/ml G418. Methyl-nitrosurea (MNU) is an alkylating agent that produces a variety of mono-methylated DNA adducts, hydroxyurea (HU) stalls DNA replication complexes, doxorubicin interferes with DNA synthesis, methothrexate is a competitive inhibitor of dihydrofolate reductase but is not genotoxic, diepoxybutane and mitomycin C induce inter-strand DNA crosslinks, UV irradiation causes intra- and inter-strand pyrimidine dimmers, and ethidium bromide intercalates between DNA strands to damage DNA (For additional information about these agents see http://toxnet.nlm.nih.gov and http://lisntweb.swan.ac.uk/cmgt/index.htm). […] The fold-increase for MNU and HU ranged from 39-123 and 18-68, respectively (Table 3). The optimal concentrations of each agent to stimulate colony formation with minimal toxicity (<5% loss of cell viability) were determined in advance (FIG. 13). […] Each of these agents was tested two or more times on at least 25 entrapment lines.
# Serially diluted cells were plated onto 150 mm plates containing drug-free media and allowed to attach overnight. Unattached cells were removed and media containing the indicated concentrations of methyl-nitrosourea, hydroxyurea, ethidium bromide, doxorubicin, methotrexate, diepoxybutane, or mitomycin C was put onto cells for 4 hours (or cells were exposed to ultraviolet light in the absence of media and allowed to recover in drug-free media for 4 hours). Cells were then rinsed twice with drug-free media and selection media containing 0.0, 0.3, or 2.0 mg/ml G418 was put onto cells. After 12 days of selection, the number of colonies surviving was counted and the frequency of colony formation was determined by dividing the number of colonies obtained from 2.0 mg/ml G418 selection to that obtained from parallel experiments with 0.3 mg/ml G418 selection. TK gene loss was assessed following selection in media containing 2 μg/ml gancyclovir.
# Table 3. The frequency of colony formation in high concentrations of G418. The frequency of colony formation is listed for all 53 clones examined. Frequency was determined by dividing the number of colonies surviving 2.0 mg/ml G418 selection to the number surviving parallel experiments with 0.3 mg/ml G418 selection, and is the average of at least 3 independent experiments for each clone. Standard deviations, which ranged from 5 to 70% of the mean values, have been omitted for clarity. […]
# [2] = tested on: HSV thymidine kinase (TK) gene in cells containing an entrapment mutation in the Hesx1 gene; assay: TK gene loss, selection in gancyclovir; type: cell-based, mouse
smiles,measurement,setting,value
"CN(N=O)C(N)=O [MNU, methyl-nitrosourea]",number of colonies surviving in high G418,[1]; 0.5 mM MNU or 0.25 mM HU (FIG. 10),dramatically increased
same,"fold-increase of colonies surviving in high G418, range over clones","[1]; 0.5 mM MNU, Table 3 clones",39-123 fold
same,fold increase of frequency of colony formation,[1]; clone b2p1-a5 (12C3),(+61-fold)
same,fold increase of frequency of colony formation,[1]; clone b2p1-a9 (2H1),(+53-fold)
same,fold increase of frequency of colony formation,[1]; clone b2p1-b4 (9E1),(+53-fold)
same,fold increase of frequency of colony formation,[1]; clone b2p1-b9 (4B1),(+59-fold)
same,fold increase of frequency of colony formation,[1]; clone b2p1-c6 (19A),(+39-fold)
same,fold increase of frequency of colony formation,[1]; clone b2p1-d3 (19C1),(+41-fold)
same,fold increase of frequency of colony formation,[1]; clone b2p1-d8 (4D2.3),(+52-fold)
same,fold increase of frequency of colony formation,[1]; clone b2p1-d9 (7E3),(+75-fold)
same,fold increase of frequency of colony formation,[1]; clone b2p1-d10 (9A1),(+76-fold)
same,fold increase of frequency of colony formation,[1]; clone b2p1-e3 (4D2.3),(+54-fold)
same,fold increase of frequency of colony formation,[1]; clone b2p1-e10 (19C1),(+54-fold)
same,fold increase of frequency of colony formation,[1]; clone b2p1-f3 (17E1.3),(+51-fold)
same,fold increase of frequency of colony formation,[1]; clone b2p1-f10 (3F2.1),(+91-fold)
same,fold increase of frequency of colony formation,[1]; clone b2p1-f12 (1H5),(+77-fold)
same,fold increase of frequency of colony formation,[1]; clone b2p1-h1 (7A2),(+63-fold)
same,fold increase of frequency of colony formation,[1]; clone b2p1-h5 (1H5),(+75-fold)
same,fold increase of frequency of colony formation,[1]; clone b2p1-h8 (6A3.3),(+68-fold)
same,fold increase of frequency of colony formation,[1]; clone b3p1-h1 (18E2),(+55-fold)
same,fold increase of frequency of colony formation,[1]; clone b3p3-a4 (4A5),(+78-fold)
same,fold increase of frequency of colony formation,[1]; clone b3p3-a9 (4A5),(+49-fold)
same,fold increase of frequency of colony formation,[1]; clone b3p3-b6 (3F1),(+60-fold)
same,fold increase of frequency of colony formation,[1]; clone b3p3-c8 (14A3),(+73-fold)
same,fold increase of frequency of colony formation,[1]; clone b3p3-c12 (5G2),(+29-fold)
same,fold increase of frequency of colony formation,[1]; clone b3p3-d4 (1C3),(+43-fold)
same,fold increase of frequency of colony formation,[1]; clone b3p3-d8 (1C2),(+123-fold)
same,fold increase of frequency of colony formation,[1]; clone b3p3-d9 (4E2),(+89-fold)
same,fold increase of frequency of colony formation,[1]; clone b3p3-g6 (10C2),(+59-fold)
same,fold increase of frequency of colony formation,[1]; clone b3p3-g10 (4E1),(+58-fold)
same,fold increase of frequency of colony formation,[1]; clone b3p3-h2 (19C1),(+73-fold)
same,fold increase of frequency of colony formation,[1]; clone b3p3-h4 (5E2),(+70-fold)
same,fold increase of frequency of colony formation,[1]; clone b3p3-h8 (19A),(+105-fold)
same,fold increase of frequency of colony formation,[1]; clone b3p4-a1 (4A4),(+69-fold)
same,fold increase of frequency of colony formation,[1]; clone b3p4-a5 (3B),(+47-fold)
same,fold increase of frequency of colony formation,[1]; clone b3p4-b1 (3A2),(+45-fold)
same,fold increase of frequency of colony formation,[1]; clone b3p4-b2 (11B1.3),(+54-fold)
same,fold increase of frequency of colony formation,[1]; clone b3p4-b8 (4C6),(+63-fold)
same,fold increase of frequency of colony formation,[1]; clone b3p4-b12 (3A1),(+52-fold)
same,fold increase of frequency of colony formation,[1]; clone b3p4-c1 (17B3),(+69-fold)
same,fold increase of frequency of colony formation,[1]; clone b3p4-c2 (8C3),(+76-fold)
same,fold increase of frequency of colony formation,[1]; clone b3p4-c9 (15F2),(+39-fold)
same,fold increase of frequency of colony formation,[1]; clone b3p4-c12 (17E2),(+74-fold)
same,fold increase of frequency of colony formation,[1]; clone b3p4-d10 (14E5),(+88-fold)
same,fold increase of frequency of colony formation,[1]; clone b3p4-d12 (1C3),(+82-fold)
same,fold increase of frequency of colony formation,[1]; clone b3p4-e1 (2G3),(+65-fold)
same,fold increase of frequency of colony formation,[1]; clone b3p4-e3 (15D3),(+73-fold)
same,fold increase of frequency of colony formation,[1]; clone b3p4-e7 (12C1),(+43-fold)
same,fold increase of frequency of colony formation,[1]; clone b3p4-f2 (4E1),(+55-fold)
same,fold increase of frequency of colony formation,[1]; clone b3p4-f6 (7E3),(+48-fold)
same,fold increase of frequency of colony formation,[1]; clone b3p4-f10 (8A4),(+81-fold)
same,fold increase of frequency of colony formation,[1]; clone b3p4-g3 (1C3),(+81-fold)
same,fold increase of frequency of colony formation,[1]; clone b3p4-g8 (10C1),(+75-fold)
same,fold increase of frequency of colony formation,[1]; clone b3p4-g9 (2C2),(+65-fold)
same,fold increase of frequency of colony formation,[1]; clone b3p4-h11 (8A1.1),(+65-fold)
same,survival of mutant ES cells in media containing 2.0 mg/ml G418,"[1]; ES cells heterozygous for Xrcc5 entrapment mutation, 4 hours with 0.5 mM methyl-nitrosourea, 0.25 mM hydroxyurea or 100 ng/ml diepoxybutane",enhances the survival
same,overall extent of LOH induced,[1]; single exposure to non-toxic levels,~1 % of the genome
same,Ratio of Freq. TK loss,"[2]; Table 2, C8TK1mN and C8TK1sN, Treatment none",2.6
same,Ratio of Freq. TK loss,"[2]; Table 2, C8TK1sN and C8TK1mN, Treatment MNU",1.8
same,Freq. TK loss,"[2]; Table 4, clone printed C8TK1mN (EL LOH induced by MNU), Treatment MNU",4.5 × 10^−4
same,Freq. TK loss,"[2]; Table 4, clone printed C8TK1mN (EL LOH induced by MNU, TK+ EL−/−), Treatment none",1.3 × 10^−5
same,Freq. TK loss,"[2]; Table 4, clone printed C8TK1sN (Spont. EL LOH), Treatment MNU",2.9 × 10^−4
same,Ratio of Freq. TK loss,"[2]; Table 4, printed C8TK1mN and C8TK1sN, Treatment none",2.4
same,Ratio of Freq. TK loss,"[2]; Table 4, printed C8TK1sN and C8TK1mN, Treatment MNU",1.6
